Source: ChEMBL document CHEMBL4014275, “Discovery of benzofuran-3(2H)-one derivatives as novel DRAK2 inhibitors that protect islet β-cells from apoptosis” (Eur J Med Chem, 2017)

Assays:
[1] = target: T1, Serine/threonine-protein kinase 17B (Homo sapiens, UniProt O94768); experiment: Inhibition of recombinant GST-tagged DRAK2 (unknown origin) autophosphorylation after 2 hrs by ADP-glo assay
T1 sequence (O94768 whole entry): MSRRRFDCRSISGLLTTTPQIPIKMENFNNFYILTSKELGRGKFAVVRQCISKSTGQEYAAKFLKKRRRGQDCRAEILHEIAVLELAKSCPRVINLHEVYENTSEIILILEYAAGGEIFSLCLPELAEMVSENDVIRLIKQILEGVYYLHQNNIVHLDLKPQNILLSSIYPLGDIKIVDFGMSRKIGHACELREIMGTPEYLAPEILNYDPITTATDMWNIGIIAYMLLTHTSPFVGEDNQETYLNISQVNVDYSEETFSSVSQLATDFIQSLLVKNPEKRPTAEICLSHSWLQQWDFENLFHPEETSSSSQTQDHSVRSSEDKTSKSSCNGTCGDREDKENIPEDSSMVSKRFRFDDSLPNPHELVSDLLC

[2] = target: Death-associated protein kinase 3 (Homo sapiens, UniProt O43293); experiment: Inhibition of human DAPK3
Chain of Death-associated protein kinase 3 (O43293 whole entry): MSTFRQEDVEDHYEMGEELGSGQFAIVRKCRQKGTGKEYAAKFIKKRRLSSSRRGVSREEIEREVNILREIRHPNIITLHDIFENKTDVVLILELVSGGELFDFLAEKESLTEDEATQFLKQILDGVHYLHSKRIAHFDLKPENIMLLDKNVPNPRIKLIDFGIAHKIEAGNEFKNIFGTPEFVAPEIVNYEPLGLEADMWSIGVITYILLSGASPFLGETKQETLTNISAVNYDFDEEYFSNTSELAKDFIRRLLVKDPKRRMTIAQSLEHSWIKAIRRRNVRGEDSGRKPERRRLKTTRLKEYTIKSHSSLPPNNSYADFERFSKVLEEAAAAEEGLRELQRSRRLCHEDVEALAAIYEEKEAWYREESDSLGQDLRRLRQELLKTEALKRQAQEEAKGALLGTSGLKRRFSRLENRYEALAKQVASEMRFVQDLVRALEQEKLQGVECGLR

[3] = target: Death-associated protein kinase 2 (Homo sapiens, UniProt Q9UIK4); experiment: Inhibition of human DAPK2
Chain of Death-associated protein kinase 2 (Q9UIK4 whole entry): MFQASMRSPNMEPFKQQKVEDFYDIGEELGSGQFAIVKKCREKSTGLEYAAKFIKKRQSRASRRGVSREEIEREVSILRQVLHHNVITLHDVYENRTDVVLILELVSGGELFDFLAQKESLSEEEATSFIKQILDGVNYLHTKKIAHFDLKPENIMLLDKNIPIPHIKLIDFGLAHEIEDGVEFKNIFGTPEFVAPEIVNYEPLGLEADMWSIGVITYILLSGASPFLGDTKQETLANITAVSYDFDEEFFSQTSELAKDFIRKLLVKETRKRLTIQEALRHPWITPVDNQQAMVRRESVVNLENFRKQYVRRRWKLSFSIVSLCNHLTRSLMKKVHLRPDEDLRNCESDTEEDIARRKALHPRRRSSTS

[4] = target: Death-associated protein kinase 1 (Homo sapiens, UniProt P53355); experiment: Inhibition of human DAPK1
[5] = target: Cyclin-dependent kinase 5 (Homo sapiens, UniProt Q00535); experiment: Inhibition of human CDK5
Chain of Cyclin-dependent kinase 5 (Q00535 whole entry): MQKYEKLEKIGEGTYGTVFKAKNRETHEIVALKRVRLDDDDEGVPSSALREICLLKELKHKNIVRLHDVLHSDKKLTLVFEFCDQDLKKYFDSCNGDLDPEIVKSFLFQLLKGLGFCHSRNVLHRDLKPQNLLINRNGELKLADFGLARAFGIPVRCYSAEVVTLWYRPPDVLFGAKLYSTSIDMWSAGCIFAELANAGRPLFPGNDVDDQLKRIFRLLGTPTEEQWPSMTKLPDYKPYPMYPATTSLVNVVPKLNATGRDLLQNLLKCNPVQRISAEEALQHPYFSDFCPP

[6] = target: Tyrosine-protein kinase JAK2 (Homo sapiens, UniProt O60674); experiment: Inhibition of human JAK2
[7] = target: Tyrosine-protein kinase SYK (Homo sapiens, UniProt P43405); experiment: Inhibition of human SYK
[8] = target: T2, Tyrosine-protein kinase ITK/TSK (Homo sapiens, UniProt Q08881); experiment: Inhibition of human ITK
T2 sequence (Q08881 whole entry): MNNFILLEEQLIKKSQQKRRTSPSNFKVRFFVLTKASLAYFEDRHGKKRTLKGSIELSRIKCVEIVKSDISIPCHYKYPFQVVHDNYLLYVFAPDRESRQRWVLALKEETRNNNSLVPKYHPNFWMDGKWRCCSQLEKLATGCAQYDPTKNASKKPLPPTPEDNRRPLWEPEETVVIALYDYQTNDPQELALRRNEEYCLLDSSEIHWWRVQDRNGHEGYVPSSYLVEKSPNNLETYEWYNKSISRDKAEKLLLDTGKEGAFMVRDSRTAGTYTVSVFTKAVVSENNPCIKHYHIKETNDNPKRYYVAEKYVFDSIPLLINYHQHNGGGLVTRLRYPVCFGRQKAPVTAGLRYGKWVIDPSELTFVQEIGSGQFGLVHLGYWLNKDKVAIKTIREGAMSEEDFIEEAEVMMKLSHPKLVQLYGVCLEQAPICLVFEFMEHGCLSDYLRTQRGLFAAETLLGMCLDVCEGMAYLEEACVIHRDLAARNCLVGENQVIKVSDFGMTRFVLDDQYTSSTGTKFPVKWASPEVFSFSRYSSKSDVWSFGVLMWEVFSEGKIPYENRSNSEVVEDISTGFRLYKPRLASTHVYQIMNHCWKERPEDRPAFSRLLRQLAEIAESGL

[9] = target: Cyclin-dependent kinase 4 (Homo sapiens, UniProt P11802); experiment: Inhibition of human CDK4
Chain of Cyclin-dependent kinase 4 (P11802 whole entry): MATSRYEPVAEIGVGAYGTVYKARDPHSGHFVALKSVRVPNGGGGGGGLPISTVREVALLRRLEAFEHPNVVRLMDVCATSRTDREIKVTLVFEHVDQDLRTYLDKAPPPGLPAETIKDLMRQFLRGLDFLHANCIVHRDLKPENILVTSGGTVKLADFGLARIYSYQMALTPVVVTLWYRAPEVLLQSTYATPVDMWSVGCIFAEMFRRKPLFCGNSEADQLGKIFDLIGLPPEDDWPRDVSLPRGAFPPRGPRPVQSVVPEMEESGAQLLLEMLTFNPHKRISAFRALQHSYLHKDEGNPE

[10] = target: Cyclin-dependent kinase 6 (Homo sapiens, UniProt Q00534); experiment: Inhibition of human CDK6
Chain of Cyclin-dependent kinase 6 (Q00534 whole entry): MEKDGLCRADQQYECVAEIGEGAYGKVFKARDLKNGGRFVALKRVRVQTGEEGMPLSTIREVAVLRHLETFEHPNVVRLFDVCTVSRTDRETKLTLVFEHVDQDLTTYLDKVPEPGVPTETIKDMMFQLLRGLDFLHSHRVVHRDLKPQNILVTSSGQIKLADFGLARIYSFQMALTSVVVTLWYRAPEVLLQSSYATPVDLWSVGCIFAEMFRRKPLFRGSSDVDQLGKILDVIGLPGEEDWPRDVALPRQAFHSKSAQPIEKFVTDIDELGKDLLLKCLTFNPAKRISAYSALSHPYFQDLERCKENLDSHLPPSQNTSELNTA

[11] = target: Tyrosine-protein kinase BTK (Homo sapiens, UniProt Q06187); experiment: Inhibition of human BTK
Chain of Tyrosine-protein kinase BTK (Q06187 whole entry): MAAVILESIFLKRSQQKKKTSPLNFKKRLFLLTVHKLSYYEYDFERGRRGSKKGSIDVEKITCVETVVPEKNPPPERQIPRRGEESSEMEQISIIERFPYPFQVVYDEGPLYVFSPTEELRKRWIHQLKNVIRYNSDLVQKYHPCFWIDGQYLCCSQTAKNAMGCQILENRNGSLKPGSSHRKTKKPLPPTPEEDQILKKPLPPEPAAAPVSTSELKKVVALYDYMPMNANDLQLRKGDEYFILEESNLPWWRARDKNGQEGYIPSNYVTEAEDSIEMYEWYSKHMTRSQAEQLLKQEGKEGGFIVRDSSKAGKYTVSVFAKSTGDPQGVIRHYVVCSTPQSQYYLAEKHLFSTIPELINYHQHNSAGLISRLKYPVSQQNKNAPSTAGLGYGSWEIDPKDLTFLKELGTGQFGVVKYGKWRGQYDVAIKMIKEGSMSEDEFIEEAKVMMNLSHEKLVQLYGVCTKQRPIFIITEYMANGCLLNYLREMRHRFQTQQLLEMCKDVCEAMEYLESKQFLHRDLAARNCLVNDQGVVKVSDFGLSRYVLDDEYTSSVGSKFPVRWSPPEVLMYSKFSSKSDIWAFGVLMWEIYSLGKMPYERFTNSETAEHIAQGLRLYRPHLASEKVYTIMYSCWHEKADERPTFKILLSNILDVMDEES

[12] = target: Cyclin-dependent kinase 9 (Homo sapiens, UniProt P50750); experiment: Inhibition of human CDK9
Chain of Cyclin-dependent kinase 9 (P50750 whole entry): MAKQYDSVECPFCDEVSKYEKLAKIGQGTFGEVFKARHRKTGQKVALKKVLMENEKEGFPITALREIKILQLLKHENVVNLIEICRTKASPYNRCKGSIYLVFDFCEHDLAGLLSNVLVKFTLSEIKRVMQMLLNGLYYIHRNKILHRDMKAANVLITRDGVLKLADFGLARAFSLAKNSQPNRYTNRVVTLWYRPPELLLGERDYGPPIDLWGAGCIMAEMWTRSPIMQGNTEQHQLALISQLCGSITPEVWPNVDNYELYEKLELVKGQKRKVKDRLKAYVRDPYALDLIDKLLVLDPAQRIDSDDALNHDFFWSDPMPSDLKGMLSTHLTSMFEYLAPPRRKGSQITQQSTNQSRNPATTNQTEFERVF

[13] = target: T3, Tyrosine-protein kinase JAK3 (Homo sapiens, UniProt P52333); experiment: Inhibition of human JAK3
T3 sequence (P52333 whole entry): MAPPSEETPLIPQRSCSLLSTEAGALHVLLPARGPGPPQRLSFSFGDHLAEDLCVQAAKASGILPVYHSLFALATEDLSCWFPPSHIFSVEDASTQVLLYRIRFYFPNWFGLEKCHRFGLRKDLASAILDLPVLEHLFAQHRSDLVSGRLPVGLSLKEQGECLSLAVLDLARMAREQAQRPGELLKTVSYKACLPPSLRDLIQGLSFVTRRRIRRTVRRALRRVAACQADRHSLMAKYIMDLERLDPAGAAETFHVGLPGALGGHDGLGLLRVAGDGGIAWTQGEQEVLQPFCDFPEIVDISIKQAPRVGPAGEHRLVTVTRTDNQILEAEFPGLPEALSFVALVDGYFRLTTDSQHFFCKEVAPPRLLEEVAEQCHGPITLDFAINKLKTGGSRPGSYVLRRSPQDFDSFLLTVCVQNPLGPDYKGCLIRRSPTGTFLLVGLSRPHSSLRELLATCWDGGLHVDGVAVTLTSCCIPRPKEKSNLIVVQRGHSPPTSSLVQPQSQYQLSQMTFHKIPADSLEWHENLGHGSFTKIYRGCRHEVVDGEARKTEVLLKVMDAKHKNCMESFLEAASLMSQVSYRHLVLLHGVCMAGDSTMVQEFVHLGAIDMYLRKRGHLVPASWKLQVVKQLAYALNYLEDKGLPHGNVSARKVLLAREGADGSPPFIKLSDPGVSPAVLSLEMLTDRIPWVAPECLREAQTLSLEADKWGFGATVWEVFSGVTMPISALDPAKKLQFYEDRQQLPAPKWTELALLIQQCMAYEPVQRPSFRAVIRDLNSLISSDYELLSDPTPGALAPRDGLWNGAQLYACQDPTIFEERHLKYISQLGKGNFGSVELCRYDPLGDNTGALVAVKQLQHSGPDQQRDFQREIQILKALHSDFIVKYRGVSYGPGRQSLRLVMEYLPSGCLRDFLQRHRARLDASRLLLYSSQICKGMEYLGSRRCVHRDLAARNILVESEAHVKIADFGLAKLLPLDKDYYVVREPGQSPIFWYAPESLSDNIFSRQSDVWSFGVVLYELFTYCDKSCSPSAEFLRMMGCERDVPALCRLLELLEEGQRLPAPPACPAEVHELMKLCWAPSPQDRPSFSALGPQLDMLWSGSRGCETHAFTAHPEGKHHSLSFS

[14] = target: T4, Serine/threonine-protein kinase 17A (Homo sapiens, UniProt Q9UEE5); experiment: Inhibition of human DRAK1
T4 sequence (Q9UEE5 whole entry): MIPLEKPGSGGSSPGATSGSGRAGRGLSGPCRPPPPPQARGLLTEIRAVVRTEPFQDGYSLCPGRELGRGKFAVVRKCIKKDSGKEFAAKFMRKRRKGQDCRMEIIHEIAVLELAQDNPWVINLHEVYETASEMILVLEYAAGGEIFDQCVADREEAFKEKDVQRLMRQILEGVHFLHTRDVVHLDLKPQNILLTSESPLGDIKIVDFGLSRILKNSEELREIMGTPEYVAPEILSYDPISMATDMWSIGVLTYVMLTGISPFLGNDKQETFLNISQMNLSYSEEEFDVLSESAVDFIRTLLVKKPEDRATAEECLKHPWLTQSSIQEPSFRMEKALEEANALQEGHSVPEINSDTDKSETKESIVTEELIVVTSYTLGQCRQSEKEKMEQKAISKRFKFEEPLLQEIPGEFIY

Aurora kinase A = target: T5, Aurora kinase A (Homo sapiens, UniProt O14965); experiment: Inhibition of human AURORA-A
T5 sequence (O14965 whole entry): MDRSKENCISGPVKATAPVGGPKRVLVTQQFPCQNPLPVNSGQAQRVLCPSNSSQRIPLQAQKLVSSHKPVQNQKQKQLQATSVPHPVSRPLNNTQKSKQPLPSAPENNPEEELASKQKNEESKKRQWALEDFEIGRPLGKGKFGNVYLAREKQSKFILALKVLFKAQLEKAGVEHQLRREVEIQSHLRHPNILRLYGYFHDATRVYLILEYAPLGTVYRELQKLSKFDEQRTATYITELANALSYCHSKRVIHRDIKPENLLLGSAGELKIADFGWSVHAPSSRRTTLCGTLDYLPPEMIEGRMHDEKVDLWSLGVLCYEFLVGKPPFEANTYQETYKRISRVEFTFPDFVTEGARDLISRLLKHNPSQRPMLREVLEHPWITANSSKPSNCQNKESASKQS

[15] = target: Glycogen synthase kinase-3 beta (Homo sapiens, UniProt P49841); experiment: Inhibition of human GSK3beta
Chain of Glycogen synthase kinase-3 beta (P49841 whole entry): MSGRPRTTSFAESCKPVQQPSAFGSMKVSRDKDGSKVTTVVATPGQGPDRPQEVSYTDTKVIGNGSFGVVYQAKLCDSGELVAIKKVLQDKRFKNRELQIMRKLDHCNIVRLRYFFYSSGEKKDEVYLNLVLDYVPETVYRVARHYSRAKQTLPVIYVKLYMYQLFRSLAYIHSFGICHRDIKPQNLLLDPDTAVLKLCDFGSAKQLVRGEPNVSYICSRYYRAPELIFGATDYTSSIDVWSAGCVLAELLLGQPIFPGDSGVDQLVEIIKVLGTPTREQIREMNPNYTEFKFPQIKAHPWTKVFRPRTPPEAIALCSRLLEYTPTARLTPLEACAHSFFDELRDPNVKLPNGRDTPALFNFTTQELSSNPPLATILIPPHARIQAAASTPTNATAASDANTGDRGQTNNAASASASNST

Angiopoietin-1 receptor = Angiopoietin-1 receptor (Homo sapiens, UniProt Q02763); experiment: Inhibition of human TEK
Chain of Angiopoietin-1 receptor (Q02763 whole entry): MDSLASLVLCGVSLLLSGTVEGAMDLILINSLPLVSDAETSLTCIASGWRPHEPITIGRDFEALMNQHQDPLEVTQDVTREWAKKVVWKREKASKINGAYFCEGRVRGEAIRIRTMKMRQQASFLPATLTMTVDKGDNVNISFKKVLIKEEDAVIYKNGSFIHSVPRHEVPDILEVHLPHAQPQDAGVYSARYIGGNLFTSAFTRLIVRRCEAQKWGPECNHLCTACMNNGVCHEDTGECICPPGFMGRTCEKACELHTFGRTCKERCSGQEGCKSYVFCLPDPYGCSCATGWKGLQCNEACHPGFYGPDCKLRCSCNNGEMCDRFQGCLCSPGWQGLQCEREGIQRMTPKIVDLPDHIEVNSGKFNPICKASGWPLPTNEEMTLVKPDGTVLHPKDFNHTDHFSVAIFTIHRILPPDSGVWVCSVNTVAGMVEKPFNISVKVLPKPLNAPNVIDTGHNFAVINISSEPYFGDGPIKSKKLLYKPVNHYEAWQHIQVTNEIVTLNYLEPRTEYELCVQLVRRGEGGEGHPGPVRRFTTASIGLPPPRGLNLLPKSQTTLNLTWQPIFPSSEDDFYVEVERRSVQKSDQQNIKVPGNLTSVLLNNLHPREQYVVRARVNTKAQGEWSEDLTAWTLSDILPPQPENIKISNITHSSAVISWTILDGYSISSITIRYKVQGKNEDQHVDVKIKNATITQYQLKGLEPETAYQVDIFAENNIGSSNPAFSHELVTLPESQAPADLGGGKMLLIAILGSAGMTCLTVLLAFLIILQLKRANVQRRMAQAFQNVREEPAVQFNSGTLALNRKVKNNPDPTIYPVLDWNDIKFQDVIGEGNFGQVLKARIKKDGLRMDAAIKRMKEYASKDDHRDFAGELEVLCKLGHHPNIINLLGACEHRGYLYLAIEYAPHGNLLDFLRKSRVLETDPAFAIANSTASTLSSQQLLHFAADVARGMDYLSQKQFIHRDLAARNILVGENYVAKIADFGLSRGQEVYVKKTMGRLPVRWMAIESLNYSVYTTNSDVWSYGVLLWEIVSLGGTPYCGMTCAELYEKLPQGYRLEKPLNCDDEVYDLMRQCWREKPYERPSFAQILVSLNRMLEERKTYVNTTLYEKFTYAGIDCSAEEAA

[16] = target: Tyrosine-protein kinase Blk (Homo sapiens, UniProt P51451); experiment: Inhibition of human BLK
Chain of Tyrosine-protein kinase Blk (P51451 whole entry): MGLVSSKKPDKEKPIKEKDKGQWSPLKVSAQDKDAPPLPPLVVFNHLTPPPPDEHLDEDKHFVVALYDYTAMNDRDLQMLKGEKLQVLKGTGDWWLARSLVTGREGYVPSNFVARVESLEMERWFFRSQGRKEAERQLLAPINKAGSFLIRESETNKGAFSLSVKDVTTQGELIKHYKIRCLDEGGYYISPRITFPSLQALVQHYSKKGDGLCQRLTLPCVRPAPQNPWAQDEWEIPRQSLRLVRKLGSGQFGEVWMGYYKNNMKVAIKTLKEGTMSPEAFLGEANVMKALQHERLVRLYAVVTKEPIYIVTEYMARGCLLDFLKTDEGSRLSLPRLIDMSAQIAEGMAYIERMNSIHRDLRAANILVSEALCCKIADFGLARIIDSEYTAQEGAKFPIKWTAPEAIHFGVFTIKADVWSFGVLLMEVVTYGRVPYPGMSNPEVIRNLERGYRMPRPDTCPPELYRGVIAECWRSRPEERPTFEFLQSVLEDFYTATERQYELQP

COc1ccc(/C=C2\Oc3ccccc3C2=O)cc1OC [3',4'-DIMETHOXY-AURONE]
IC50 [1]: 21.4 µM

COc1cc(/C=C2\Oc3ccccc3C2=O)cc(OC)c1O
IC50 [1]: 6.65 µM

CCOc1cc(/C=C2\Oc3ccc(N)cc3C2=O)ccc1O
IC50 [1]: 7.16 µM

CCOc1cc(/C=C2\Oc3ccc(F)cc3C2=O)ccc1O
IC50 [1]: 1.05 µM

CCOc1cc(/C=C2\Oc3ccc(Br)cc3C2=O)ccc1O
IC50 [1]: 28.1 µM

CCOc1ccc2c(c1)C(=O)/C(=C/c1ccc(O)c(OCC)c1)O2
IC50 [1]: 0.41 µM

O=C1/C(=C/c2ccccc2)Oc2ccccc21 [(Z)-AURONE]
IC50 [1]: 24.6 µM

O=C1/C(=C/c2ccc(F)cc2)Oc2ccccc21
IC50 [1]: 40.5 µM

CCOc1cc(/C=C2\Oc3cc(OC)ccc3C2=O)ccc1O
IC50 [1]: 2.44 µM

COc1ccc(/C=C2\Oc3ccccc3C2=O)cc1O
IC50 [1]: 12.1 µM

CCCCOc1ccc2c(c1)C(=O)/C(=C/c1ccc(O)c(OCC)c1)O2
IC50 [1]: 3.66 µM

CCOc1cc(/C=C2\Oc3cccc(OC)c3C2=O)ccc1O
IC50 [1]: 7.26 µM

O=C1/C(=C/c2ccc(CO)cc2)Oc2ccccc21
IC50 [1]: 11.1 µM

CCOc1cc(/C=C2\Oc3ccc(I)cc3C2=O)ccc1O
IC50 [1]: 42.5 µM

O=C1/C(=C/c2ccc(O)cc2)Oc2ccccc21
IC50 [1]: 53 µM

CCCCOc1cc(/C=C2\Oc3ccccc3C2=O)ccc1O
IC50 [1]: 29.1 µM

CCOc1cc(/C=C2\Oc3ccccc3C2=O)ccc1O
IC50 [1]: 3.24 µM

COc1cc(/C=C2\Oc3ccccc3C2=O)ccc1O
IC50 [1]: 3.11 µM

CCOc1cc(/C=C2\Oc3ccc(C)cc3C2=O)ccc1O
IC50 [1]: 0.96 µM

COc1ccc(-c2cnc3scc(NC(=O)C4CCCCC4)c3c2)cc1OC
IC50 [1]: 1.31 µM
IC50 [2]: 39.8 µM
IC50 [3]: 55 µM

CCOc1cc(/C=C2\Oc3cc(F)ccc3C2=O)ccc1O
IC50 [1]: 60.4 µM

O=C1/C(=C/c2ccco2)Oc2ccccc21
IC50 [1]: 64 µM

CCOc1cc(/C=C2\Oc3cc(Cl)ccc3C2=O)ccc1O
IC50 [1]: 40.5 µM

O=C(c1ccc(O)c(O)c1)c1cc2ccccc2o1
IC50 [1]: 22.9 µM

O=C1/C(=C/c2ccc(O)c(O)c2)Oc2cc(O)ccc21 [SULFURETIN]
IC50 [4]: 13.2 µM
IC50 [5]: 1.5 µM
IC50 [6]: 9.32 µM
IC50 [7]: 4.63 µM
IC50 [8]: 2.02 µM
IC50 [9]: 2.82 µM
IC50 [10]: 2.44 µM
IC50 [11]: 6.02 µM
IC50 [1]: 1.02 µM
IC50 [2]: 2.33 µM
IC50 [12]: 2.16 µM
IC50 [3]: 3.07 µM
IC50 [13]: 4.26 µM
IC50 [14]: 5.85 µM
IC50 (Aurora kinase A): 0.85 µM
IC50 [15]: 1.95 µM
IC50 (Angiopoietin-1 receptor): 0.95 µM
IC50 [16]: 2.88 µM

O=C1c2ccccc2OC1Cc1ccc(O)c(O)c1 (stereo not given)
IC50 [1]: 27.8 µM

O=C1/C(=C/c2cccnc2)Oc2ccccc21
IC50 [1]: 39.4 µM

O=C1/C(=C/c2ccc(O)c(O)c2)Oc2ccc(O)cc21
IC50 [1]: 0.99 µM

CCOc1cc(/C=C2\Oc3ccc(OC(C)=O)cc3C2=O)ccc1O
IC50 [1]: 0.69 µM

CCCOc1cc(/C=C2\Oc3ccccc3C2=O)ccc1O
IC50 [1]: 5.37 µM

CCOc1cc(/C=C2\Oc3c(OC)cccc3C2=O)ccc1O
IC50 [1]: 1.29 µM

O=C1/C(=C/c2ccc(O)c(O)c2)Oc2ccccc21
IC50 [1]: 3.08 to 3.15 µM

CCOc1cc(/C=C2\Oc3ccc(Cl)cc3C2=O)ccc1O
IC50 [1]: 13.7 µM

COc1ccc2c(c1)C(=O)/C(=C/c1ccc(O)c(O)c1)O2
IC50 [5]: 8.84 µM
IC50 [8]: 2.19 µM
IC50 [11]: 5.03 µM
IC50 [1]: 0.25 µM
IC50 [2]: 12.1 µM
IC50 [3]: 6.34 µM
IC50 [14]: 5.81 µM
IC50 (Aurora kinase A): 1.05 µM
IC50 [15]: 5.3 µM
IC50 (Angiopoietin-1 receptor): 0.51 µM
IC50 [16]: 3.05 µM

O=C1/C(=C/c2ccc(O)c(O)c2)Cc2ccccc21
IC50 [1]: 13.3 µM

CC(C)Oc1cc(/C=C2\Oc3ccccc3C2=O)ccc1O
IC50 [1]: 17.4 µM
